Data as given in ChEMBL document CHEMBL5528004, “Development of a new class of potent and highly selective G protein-coupled receptor kinase 5 inhibitors and structural insight from crystal structures of inhibitor complexes” (Eur J Med Chem, 2024).

Tests used:
[1] = target: T1, Beta-adrenergic receptor kinase 1 (Bos taurus, UniProt P21146); assay: Inhibition of bovine GRK2 expressed in baculovirus infected insect cell using tubulin as substrate incubated for 5 mins in presence of [gamma-32P]-ATP by radiometric assay
T1 sequence (P21146 whole entry): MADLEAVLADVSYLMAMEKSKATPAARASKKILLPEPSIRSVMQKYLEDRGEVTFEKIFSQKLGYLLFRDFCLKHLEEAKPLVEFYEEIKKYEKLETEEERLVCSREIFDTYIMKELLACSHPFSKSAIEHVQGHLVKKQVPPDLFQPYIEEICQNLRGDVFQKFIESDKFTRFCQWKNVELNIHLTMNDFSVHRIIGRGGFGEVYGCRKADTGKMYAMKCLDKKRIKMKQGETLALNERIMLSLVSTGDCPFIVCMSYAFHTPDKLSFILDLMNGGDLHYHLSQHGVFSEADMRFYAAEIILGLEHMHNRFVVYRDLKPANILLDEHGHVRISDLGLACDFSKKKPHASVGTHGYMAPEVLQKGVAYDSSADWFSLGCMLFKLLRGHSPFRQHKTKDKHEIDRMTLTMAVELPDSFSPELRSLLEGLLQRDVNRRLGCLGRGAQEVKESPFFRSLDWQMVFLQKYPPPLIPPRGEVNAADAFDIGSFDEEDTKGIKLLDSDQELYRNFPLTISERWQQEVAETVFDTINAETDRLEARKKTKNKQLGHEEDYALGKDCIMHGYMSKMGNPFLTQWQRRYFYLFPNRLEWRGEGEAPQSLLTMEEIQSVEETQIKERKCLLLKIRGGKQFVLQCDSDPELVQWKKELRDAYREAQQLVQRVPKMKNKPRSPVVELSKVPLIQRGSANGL

[2] = target: G protein-coupled receptor kinase 5 (Homo sapiens, UniProt P34947); assay: Inhibition of human GRK5 (1 to 590) expressed in Escherichia coli using tubulin as substrate incubated for 5 mins in presence of [gamma-32P]-ATP by radiometric assay
Chain of G protein-coupled receptor kinase 5 (P34947 whole entry): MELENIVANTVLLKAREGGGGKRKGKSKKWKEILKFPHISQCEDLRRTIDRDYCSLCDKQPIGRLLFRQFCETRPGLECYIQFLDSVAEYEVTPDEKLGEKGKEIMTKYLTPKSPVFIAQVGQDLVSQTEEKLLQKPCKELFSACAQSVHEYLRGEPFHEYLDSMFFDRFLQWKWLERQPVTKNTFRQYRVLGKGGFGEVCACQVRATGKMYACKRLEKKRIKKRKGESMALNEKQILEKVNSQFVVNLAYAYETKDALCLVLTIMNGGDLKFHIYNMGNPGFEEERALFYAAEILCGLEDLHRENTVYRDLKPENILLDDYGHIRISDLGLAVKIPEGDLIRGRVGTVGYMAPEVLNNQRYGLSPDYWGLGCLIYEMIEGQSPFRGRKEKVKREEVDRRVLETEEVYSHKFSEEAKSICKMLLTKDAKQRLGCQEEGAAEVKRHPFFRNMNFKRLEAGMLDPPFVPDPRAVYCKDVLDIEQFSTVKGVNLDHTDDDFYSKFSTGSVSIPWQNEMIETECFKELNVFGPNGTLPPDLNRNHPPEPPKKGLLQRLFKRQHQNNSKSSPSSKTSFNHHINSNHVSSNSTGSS

[3] = Selectivity index, ratio of IC50 for inhibition of bovine GRK2 to IC50 for inhibition of human GRK5

| IC50 [1] [µM] | IC50 [2] [µM] | Ratio IC50 [3] | Compound |
| --- | --- | --- | --- |
| 2.2 |  |  | Cc1[nH]c(/C=C2\C(=O)Nc3ccc(C(=O)NCc4ccc(F)cc4)cc32)c(C)c1NC(=O)[C@@H](O)c1ccco1 |
| 200 |  |  | CC(=O)C(=O)Nc1c(C)[nH]c(/C=C2\C(=O)Nc3ccc(C(=O)N[C@H](C)c4ccc(F)cc4)cc32)c1C |
| > 1000 | 1.1 | 900 | Cc1[nH]c(/C=C2\C(=O)Nc3ccc(C(=O)N[C@H](C)c4ccc(F)cc4)cc32)c(C)c1NC(=O)C(=O)c1ccccc1 |
| 90 |  |  | Cc1[nH]c(/C=C2\C(=O)Nc3ccc(C(=O)N[C@H](C)c4ccc(F)cc4)cc32)c(C)c1NC(=O)[C@@H](O)c1ccccc1 |
| 600 |  |  | Cc1[nH]c(/C=C2\C(=O)Nc3ccc(C(=O)N[C@H](C)c4ccc(F)cc4)cc32)c(C)c1NC(=O)[C@@H](C)O |
| 30 |  |  | Cc1[nH]c(/C=C2\C(=O)Nc3ccc(C(=O)NCc4ccc(F)cc4)cc32)c(C)c1NC(=O)[C@H](O)c1ccccc1 |
| 100 |  |  | Cc1[nH]c(/C=C2\C(=O)Nc3ccc(C(=O)N[C@H](C)c4ccc(F)cc4)cc32)c(C)c1NC(=O)[C@H](C)O |

| Compound | IC50 [1] [µM] | IC50 [2] [µM] | Ratio IC50 [3] |
| --- | --- | --- | --- |
| Cc1[nH]c(/C=C2\C(=O)Nc3ccc(C(=O)N[C@H](C)c4ccc(F)cc4)cc32)c(C)c1NC(=O)C(=O)c1ccco1 | > 1000 |  |  |
